According to patent publication US20170209579A1, “NON-INVASIVE RADIOFREQUENCY FIELD TREATMENT FOR CANCER THERAPY” (Baylor College of Medicine, priority 2014, published 2017):

Key:
[1] = test system: orthotopic pancreatic tumors (KPC pancreatic adenocarcinoma cells); assay: Gemcitabine uptake into orthotopic KPC pancreatic tumors with and without RF (LC-MS); type: in vivo, mouse; conditions: 70 mg/Kg systemic injection, sacrificed 5 hours later, RF until 41° C.
Description: FIGS. 11A-11E illustrate an example of an embodiment of the use RF energy to enhance the uptake of chemotherapy drugs into tumors compared to using chemotherapy drugs alone. (11A) Female Nude mice (4-6 weeks old) were given direct injections of KPC pancreatic adenocarcinoma cells (1×10^6) into the pancreas. After 1-2 weeks (enough time for a orthotopic pancreatic tumor to form) the mice were subjected to RF exposure under a ramped power treatment protocol as shown in the table. (11B) Graph of a typical RF power and resulting temperature versus time plot for a single mouse being exposed to RF energy. The surface temperature of the mouse in close proximity to the pancreas was recorded using an IR camera. The RF exposure was turned off once the temperature reached 41° C. […] Quantification of Gemcitabine was analyzed using Liquid Chromatography Mass Spectroscopy (LC-MS). (11E) Quantification of the levels of Gemcitabine in the orthotopic pancreatic tumors of mice with and without RF exposure. […]
FIGS. 11A-11E illustrate an example of an embodiment of the use RF energy to enhance the uptake of chemotherapy drugs into tumors compared to using chemotherapy drugs alone. […] The surface temperature of the mouse in close proximity to the pancreas was recorded using an IR camera. […] Quantification of Gemcitabine was analyzed using Liquid Chromatography Mass Spectroscopy (LC-MS). […]

[2] = test system: HepG2 xenograft; assay: Orthotopic HepG2 xenografts in CB17 SCID mice, tumor mass; type: in vivo, mouse
Description: For in vivo studies, an implanted mouse model of human HCC was generated in CB17SCID mice (Taconic, Hudson, N.Y.). Female mice between 4 and 5 weeks in age were purchased and acclimatized in M.D. Anderson Animal facilities for up to one week. All animals were handled, housed and studied in accordance with the Institutional Animal Care and Use Committee. Tumors were generated after orthotopic implantation of approximately 1.6 million cells into the liver of each mouse (10 mice per group). Bioluminescence imaging indicated tumor development in the majority of mice three weeks after implantation. Euthanasia was performed by carbon dioxide inhalation followed by cervical spine dislocation.
Cultured luciferase and GFP-expression human HCC cell lines (Hep3B and HepG2) were harvested from an exponentially growing culture and washed with PBS. The cells were re-suspended in 3 ml PBS and final centrifugation was performed at 1000 RPM for 5 minutes. Supernatant was discarded and the cell pellet was used for implantation. The concentration of cells achieved using this protocol was 160,000 cells per micro liter. The cells were kept on ice and animals were injected within 3-4 hours after final centrifugation.
Before surgery, hair was removed from the ventral surface of the abdomen using clippers. Mice were anesthetized using 2.5% isoflurane. The surgical field was sterilized with 70% (v/v) ethanol in water. Mice were placed supine on a heating pad and the surgical site was sterilized using povidone iodine swab sticks. After confirming induction of anesthesia, an approximately 1-cm transverse incision was made in the skin of the upper abdomen slightly left of the midline. Deeper layers of muscle and peritoneum were incised and hemostasis was achieved using silver nitrate chemical cautery sticks. By applying gentle pressure on the lower abdomen and lower chest, the left lobe of the liver was eviscerated. […]
Mice with confirmed tumors on bioluminescence were then randomized in groups of 10. […] Sample size was calculated using Stata SE 12.1 for Mac (College Station, Tex.). […]

Gemcitabine present in tumors, RF-treated mice versus control group [1]: approximately 4 ×
SMILES: Nc1ccn([C@@H]2O[C@H](CO)[C@@H](O)C2(F)F)c(=O)n1 [gemcitabine, 2′,2′-difluoro 2′-deoxycytidine]
Mean tumor mass [±SD] ([2]; RF then gemcitabine, weekly for three weeks): 107 ± 64 mg
Mean tumor mass [±SD] ([2]; gemcitabine alone, weekly treatments for three weeks): 170 ± 51 mg
Mean tumor mass [±SD] ([2]; gemcitabine then RF, weekly for three weeks): 74 ± 45 mg
